“Also recorded” adds a separate entry of the source.
Legend:
[1] = molecular target: type I IGF receptor; test: Inhibition of 125I-hIGF-I binding to human placental membranes (type I IGF receptor binding); settings: FIG. 6; for IC50: human placental membranes, type I IGF receptor
[2] = system: human serum carrier proteins; test: Inhibition of 125I-hIGF-I binding to acid stable human serum carrier proteins; settings: FIG. 7; for IC50: acid stable human carrier proteins
[3] = system: 3T3 cells; test: Stimulation of DNA synthesis in 3T3 cells; type: cell-based, mouse; settings: FIG. 9; for potency in stimulating DNA synthesis relative to normal/wild-type IGF-I: 3T3 cells; for potency in stimulating DNA synthesis relative to wild type IGF-I: mouse 3T3 cells
Excerpt: IGF-I stimulates DNA synthesis in mouse 3T3 cells.

[4] = system: rat adipose tissue; test: Incorporation of 14C-glucose into lipid in rat adipose tissue in vivo; settings: FIG. 10 part B
[5] = system: native binding protein in rat serum; test: Binding of 125I-labelled peptide to components in normal rat serum (gel chromatography); settings: for binding to rat serum carrier proteins / native binding protein in rat serum (in words): normal rat serum, FIG. 8
Experimental: ^125 I-labelled analog IGF132 was monitored for the ability to bind components in normal rat serum. When ^125 I-IGF or ^125 I-IGF132 is chromatographed without prior incubation with serum, the radioactivity is eluted in a broad peak which migrates at the position expected for a 7.5 kD peptide (FIG. 8A). After incubation of ^125 I-IGF with rat serum, a radioactive peak appears which elutes at the position expected for a 150 kD protein, and the amount of radioactivity in the free ^125 I-αIGF peak decreases (FIG. 8B). The ^125 I-αIGF bound to the 150 kD species represents 36%±5% of the total ^125 I-IGF-I in the incubation. When the incubation is performed in the presence of 1 μg unlabelled IGF, only one radioactive peak is observed and this corresponds to unbound ^125 I-IGF (FIG. 8B (0)). Thus, under the conditions of this assay, the binding of ^125 I-IGF to the 150 kD species from rat serum is saturable.

[6] = system: serum carrier proteins; settings: cited from earlier work

Substance | IC50 [1] [nM] | binding to human serum carrier proteins (in words) [2] | IC50 [2] [nM] | potency in stimulating DNA synthesis relative to normal/wild-type IGF-I [3] [times] | potency in stimulating DNA synthesis relative to wild type IGF-I [3] | stimulation of lipid synthesis in adipose tissue in vivo (in words) [4] | affinity/potency at the type I IGF receptor compared to normal human IGF-I (in words) [1] | binding to rat serum carrier proteins / native binding protein in rat serum (in words) [5] | binding to serum carrier proteins (in words, background observation) [6] | 125I-peptide bound to the 150 kD species, share of the total in the incubation ([5]; after incubation with rat serum, FIG. 8B) | binding to rat serum carrier proteins / native binding protein in rat serum (in words) ([5]; listed as IGF) | share bound to serum carrier proteins in normal human blood ([6]; normal human blood)
GPQALCGAELVDALYL-R1 [IGF252] | 5 | very weakly bound | 300 | 10 | about 10 fold | Neither IGF-I nor IGF252 stimulate lipid synthesis; also recorded: neither IGF-I nor IGF252 stimulates the incorporation | – | – | – | – | – | –
FVNQHLCGSHLVEALYL-R1 [IGF132] | 12 | greatly reduced binding; also recorded: very weakly bound | > 1000 | 10 | about 10 fold | – | near equal affinity | greatly reduced binding; also recorded: is not observed; also recorded: only free radioactive peptide is eluted | – | – | – | –
GPETLCGAELVDALYL-R1 [IGF122] | 4.5 | – | 2.1 | – | – | – | – | – | – | – | – | –
insulin: insulin; stated not to bind to serum carrier proteins | – | – | – | – | – | – | – | – | does not bind to serum carrier proteins | – | – | –
GPETLCGAELVDALQF-R1 [hIGF-I, reference compound] | 5.6 | tightly bound | 0.42 | – | – | Neither IGF-I nor IGF252 stimulate lipid synthesis; also recorded: neither IGF-I nor IGF252 stimulates the incorporation | – | binds in a saturable fashion | – | 36%±5% | saturable | greater than 99%
GPQALCGAELVDALQF-R1 [IGF130] | 5.3 | – | 1.8 | – | – | – | – | – | – | – | – | –
